The text below walks through data of ChEMBL document CHEMBL4000195, “Design and synthesis of novel 7-aminosubstituted pyrido[2,3-b]pyrazines exhibiting anti-breast cancer activity” (Eur J Med Chem, 2017).

A word on the IC50: it is the concentration at which inhibition is half-maximal. Read a high IC50 as weaker potency in that assay. A word on the AUC(0-t): it is exposure summed from dosing to a finite time, without extrapolation to infinity. A higher AUC(0-t) goes with high exposure. In general, Tmax refers to the time at which the peak concentration occurs. Broadly, the Cmax is the highest concentration seen after dosing.

Structures are written as SMILES. The source made the active and inactive calls. The rule behind the calls is not given here.

Data set [1] deals with HCC1954. The experiment in a line: Cytotoxicity against human HCC1954 cells by MTT assay. Format: functional, cell-based.
In data set [2] the test system is MDA-MB-231. Description: Cytotoxicity against human MDA-MB-231 cells by MTT assay. Format: functional, cell-based.
Data set [3] relates to HCC1954. Description: Anti-tumor activity against HER2-amplified human HCC1954 cells xenografted in NOD/SCID mouse assessed as tumor size at 10 mg/kg, ip administered once daily for 18 days measured after 1 hr last dose (reference value: 497 +/- 82 mm3). Format: functional. For orientation: In xenograft studies the graft and the host belong to different species.
Data set [4] deals with T47D. The experiment in a line: Cytotoxicity against human T47D cells by MTT assay. In kind it is functional, cell-based. Background: Tetrazolium assays rely on reduction of a dye to a coloured formazan, in cell work by metabolically active cells.
The test system of a further data set is SK-BR-3. The experiment in a line: Cytotoxicity against human SKBR3 cells by MTT assay. In kind it is functional, cell-based.
For data set [5], the system named is MCF7. Description: Cytotoxicity against human MCF7 cells by MTT assay. Format: functional, cell-based.
The subject of data set [6] is T47D. Description: Cytotoxicity against human T47D cells at 5 uM by MTT assay. Format: functional.
Data set [7] has as its system T47D. Description: Cytotoxicity against human T47D cells at 10 uM by MTT assay. Format: functional.
Data set [8] has as its target Vascular endothelial growth factor receptor 2 (Homo sapiens) (UniProt P35968). The experiment in a line: Inhibition of recombinant human GST-tagged VEGFR-2 (789-end residues) transphosphorylation activity expressed in baculovirus infected Sf9 cells using poly[Glu:Tyr] (4:1) as substrate after 60 mins.
Data set [9] can be described thus: AUC (0 to 8 hrs) in NOD/SCID mouse at 0.5 mg/kg, ip administered as single dose by LC-MS/MS method. In kind it is ADME, organism-based. On the set-up: dose 0.5 mg/kg, time < 8 hr, route intraperitoneal. Conditions: in vivo.
The target in data set [10] is T1, Serine/threonine-protein kinase haspin (Homo sapiens) (UniProt Q8TF76).
T1 sequence (whole entry): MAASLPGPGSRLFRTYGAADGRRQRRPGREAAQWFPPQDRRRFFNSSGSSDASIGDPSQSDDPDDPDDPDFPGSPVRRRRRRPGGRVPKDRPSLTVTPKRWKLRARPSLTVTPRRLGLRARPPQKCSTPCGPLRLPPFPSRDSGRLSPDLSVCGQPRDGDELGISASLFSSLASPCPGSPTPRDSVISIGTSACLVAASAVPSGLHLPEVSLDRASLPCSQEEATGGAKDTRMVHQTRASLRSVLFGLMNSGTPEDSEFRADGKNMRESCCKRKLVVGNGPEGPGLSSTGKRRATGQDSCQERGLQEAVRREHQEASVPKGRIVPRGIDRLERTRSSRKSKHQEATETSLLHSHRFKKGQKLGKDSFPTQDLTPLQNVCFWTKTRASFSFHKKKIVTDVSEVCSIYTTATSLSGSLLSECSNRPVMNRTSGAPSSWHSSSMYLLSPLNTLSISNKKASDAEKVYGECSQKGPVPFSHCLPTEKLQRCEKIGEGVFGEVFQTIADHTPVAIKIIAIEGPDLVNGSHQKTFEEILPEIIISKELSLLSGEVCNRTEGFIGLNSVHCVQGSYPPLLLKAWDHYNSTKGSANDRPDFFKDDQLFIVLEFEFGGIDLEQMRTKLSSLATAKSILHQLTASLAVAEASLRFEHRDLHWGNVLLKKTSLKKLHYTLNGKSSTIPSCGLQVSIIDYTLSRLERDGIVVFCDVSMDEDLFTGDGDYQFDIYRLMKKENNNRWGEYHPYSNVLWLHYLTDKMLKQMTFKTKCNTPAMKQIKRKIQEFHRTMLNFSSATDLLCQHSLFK
Description: Inhibition of human HASPIN.

Data set [11] relates to MCF7. Description: Cytotoxicity against human MCF7 cells at 5 uM by MTT assay. Format: functional.
Data set [12] deals with Phosphatidylinositol 4,5-bisphosphate 3-kinase catalytic subunit alpha isoform (Homo sapiens, UniProt P42336). Description: Inhibition of PI3Kalpha catalytic domain (unknown origin) using PIP2 liposomes as substrate in presence of biotin-labeled PIP3 and GST-GRP1-PH by streptavidin-HRP based assays.
Data set [13] can be described thus: Tmax in NOD/SCID mouse at 0.5 mg/kg, ip administered as single dose by LC-MS/MS method. In kind it is ADME, organism-based. Particulars: in vivo.
Data set [14] deals with MCF7. Description: Cytotoxicity against human MCF7 cells at 10 uM by MTT assay. Format: functional.
For data set [15], the system named is Mus musculus. The experiment in a line: Toxicity in NOD/SCID mouse assessed as phenotypic changes at 0.5 mg/kg, ip administered as single dose. In kind it is organism-based. Conditions: in vivo.
The target of data set [16] is Glycogen synthase kinase-3 (Sus scrofa) (UniProt B2LUN4+I6LNT8). The experiment in a line: Inhibition of pig GSK3alpha/beta using GS-1 as substrate in presence of [gamma33P]ATP after 30 mins by scintillation counting method.
The nature of data set [17]: Cmax in NOD/SCID mouse at 0.5 mg/kg, po administered as single dose by LC-MS/MS method. In kind it is ADME, organism-based. On the set-up: dose 0.5 mg/kg, route oral. Particulars: in vivo.
For data set [18], the target named is Mast/stem cell growth factor receptor Kit (Homo sapiens) (UniProt P10721). The experiment in a line: Inhibition of recombinant human GST-tagged KIT (544-end residues) transphosphorylation activity expressed in baculovirus infected Sf9 cells using poly[Glu:Tyr] (4:1) as substrate after 60 mins.
For data set [19], the target named is Aurora kinase B/Inner centromere protein (Homo sapiens) (UniProt Q96GD4+Q9NQS7). Description: Inhibition of human AURKB/INCENP. Format: protein-complex assay.
For a further data set, the species on record is Sus scrofa. The experiment in a line: Inhibition of pig CK1delta/epsilon.
In data set [20] the target is Receptor-interacting serine/threonine-protein kinase 3 (Homo sapiens) (UniProt Q9Y572). The experiment in a line: Inhibition of human RIPK3.
Data set [21] has as its target Dual specificity tyrosine-phosphorylation-regulated kinase 1A (Rattus norvegicus) (UniProt Q63470). The experiment in a line: Inhibition of rat DYRK1A using myelin basic protein as substrate in presence of [gamma33P]ATP after 30 mins by scintillation counting method.
Data set [22] has as its system HCC1954. Description: Cytotoxicity against human HCC1954 cells at 10 uM by MTT assay. Format: functional.
Data set [23] is described as follows: AUC (0 to 8 hrs) in NOD/SCID mouse at 0.5 mg/kg, po administered as single dose by LC-MS/MS method. Format: ADME, organism-based. On the set-up: time < 8 hr, dose 0.5 mg/kg, route oral. Particulars: in vivo.
The target in data set [24] is Platelet-derived growth factor receptor beta (Homo sapiens) (UniProt P09619). Description: Inhibition of recombinant human GST-tagged PDGFR-beta (557-end residues) transphosphorylation activity expressed in baculovirus infected Sf9 cells using poly[Glu:Tyr] (4:1) as substrate after 60 mins.
Data set [25] has as its target Receptor-type tyrosine-protein kinase FLT3 (Homo sapiens) (UniProt P36888). Description: Inhibition of recombinant human GST-tagged FLT3 (571 to 993 residues) transphosphorylation activity expressed in baculovirus infected Sf9 cells using poly[Glu:Tyr] (4:1) as substrate after 60 mins.
For data set [26], the target named is Dual specificity protein kinase CLK1 (Mus musculus) (UniProt P22518). The experiment in a line: Inhibition of mouse CLK1.
A short description of data set [27]: Tmax in NOD/SCID mouse at 0.5 mg/kg, po administered as single dose by LC-MS/MS method. Format: ADME, organism-based. Particulars: in vivo.
Data set [28] in a line: Cmax in NOD/SCID mouse at 0.5 mg/kg, ip administered as single dose by LC-MS/MS method. On the set-up: dose 0.5 mg/kg, route intraperitoneal. Particulars: in vivo. Format: ADME, organism-based.
Data set [29] concerns HCC1954. Description: Cytotoxicity against human HCC1954 cells at 5 uM by MTT assay. Format: functional.
The test system of data set [30] is MDA-MB-231. Description: Cytotoxicity against human MDA-MB-231 cells at 10 uM by MTT assay. In kind it is functional.
Data set [31] has as its system Mus musculus. The experiment in a line: Toxicity in NOD/SCID mouse assessed as phenotypic changes at 0.5 mg/kg, po administered as single dose. In kind it is organism-based. Particulars: in vivo.
Data set [32] concerns MDA-MB-231. Description: Cytotoxicity against human MDA-MB-231 cells at 5 uM by MTT assay. In kind it is functional.
The target of data set [33] is Cyclin-dependent kinase 5/CDK5 activator 1 (Homo sapiens) (UniProt Q00535+Q15078). The experiment in a line: Inhibition of human CDK5/p25 using histone H1 as substrate in presence of [gamma33P]ATP after 30 mins by scintillation counting method. Format: protein-complex assay.

Sequence of Mast/stem cell growth factor receptor Kit (Homo sapiens) (P10721 whole entry): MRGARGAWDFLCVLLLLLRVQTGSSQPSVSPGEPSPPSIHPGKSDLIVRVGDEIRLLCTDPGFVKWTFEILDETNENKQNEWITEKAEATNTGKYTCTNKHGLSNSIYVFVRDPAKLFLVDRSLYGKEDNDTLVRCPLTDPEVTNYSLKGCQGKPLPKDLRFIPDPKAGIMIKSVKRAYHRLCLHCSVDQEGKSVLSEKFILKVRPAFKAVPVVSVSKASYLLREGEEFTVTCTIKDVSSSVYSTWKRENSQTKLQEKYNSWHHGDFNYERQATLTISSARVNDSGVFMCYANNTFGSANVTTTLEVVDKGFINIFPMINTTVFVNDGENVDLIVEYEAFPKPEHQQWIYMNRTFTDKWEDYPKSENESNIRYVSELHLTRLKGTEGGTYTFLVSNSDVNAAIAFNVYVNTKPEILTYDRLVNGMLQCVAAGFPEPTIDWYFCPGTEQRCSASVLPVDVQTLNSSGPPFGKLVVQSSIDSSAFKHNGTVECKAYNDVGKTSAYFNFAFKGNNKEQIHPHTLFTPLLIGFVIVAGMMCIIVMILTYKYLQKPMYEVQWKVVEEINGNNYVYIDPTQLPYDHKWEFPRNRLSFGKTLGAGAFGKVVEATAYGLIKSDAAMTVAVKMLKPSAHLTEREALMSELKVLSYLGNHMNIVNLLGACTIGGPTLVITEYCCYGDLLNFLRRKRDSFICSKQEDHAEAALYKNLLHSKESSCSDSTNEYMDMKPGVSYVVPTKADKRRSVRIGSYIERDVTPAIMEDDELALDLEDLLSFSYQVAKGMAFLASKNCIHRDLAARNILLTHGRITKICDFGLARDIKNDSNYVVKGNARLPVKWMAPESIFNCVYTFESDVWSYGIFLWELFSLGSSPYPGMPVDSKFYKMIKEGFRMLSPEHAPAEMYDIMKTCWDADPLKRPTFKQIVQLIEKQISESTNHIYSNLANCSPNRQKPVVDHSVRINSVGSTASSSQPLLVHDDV
Sequence of Dual specificity protein kinase CLK1 (Mus musculus) (P22518 whole entry, looked up): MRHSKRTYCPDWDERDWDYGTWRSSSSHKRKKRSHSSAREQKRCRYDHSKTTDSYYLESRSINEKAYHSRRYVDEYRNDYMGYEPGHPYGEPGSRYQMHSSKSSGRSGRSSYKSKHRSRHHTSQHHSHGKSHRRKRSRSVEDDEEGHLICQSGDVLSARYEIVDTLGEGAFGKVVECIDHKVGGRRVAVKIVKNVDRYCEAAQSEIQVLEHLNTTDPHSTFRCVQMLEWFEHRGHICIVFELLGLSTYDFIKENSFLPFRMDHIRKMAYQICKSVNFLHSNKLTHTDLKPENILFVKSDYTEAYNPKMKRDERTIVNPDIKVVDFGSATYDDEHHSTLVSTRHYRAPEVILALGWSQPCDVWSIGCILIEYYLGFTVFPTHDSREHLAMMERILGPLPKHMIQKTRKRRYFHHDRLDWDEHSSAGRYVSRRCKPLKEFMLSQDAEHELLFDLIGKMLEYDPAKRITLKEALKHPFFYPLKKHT
Sequence of Phosphatidylinositol 4,5-bisphosphate 3-kinase catalytic subunit alpha isoform (P42336 whole entry, the tested form may be a part, canonical isoform): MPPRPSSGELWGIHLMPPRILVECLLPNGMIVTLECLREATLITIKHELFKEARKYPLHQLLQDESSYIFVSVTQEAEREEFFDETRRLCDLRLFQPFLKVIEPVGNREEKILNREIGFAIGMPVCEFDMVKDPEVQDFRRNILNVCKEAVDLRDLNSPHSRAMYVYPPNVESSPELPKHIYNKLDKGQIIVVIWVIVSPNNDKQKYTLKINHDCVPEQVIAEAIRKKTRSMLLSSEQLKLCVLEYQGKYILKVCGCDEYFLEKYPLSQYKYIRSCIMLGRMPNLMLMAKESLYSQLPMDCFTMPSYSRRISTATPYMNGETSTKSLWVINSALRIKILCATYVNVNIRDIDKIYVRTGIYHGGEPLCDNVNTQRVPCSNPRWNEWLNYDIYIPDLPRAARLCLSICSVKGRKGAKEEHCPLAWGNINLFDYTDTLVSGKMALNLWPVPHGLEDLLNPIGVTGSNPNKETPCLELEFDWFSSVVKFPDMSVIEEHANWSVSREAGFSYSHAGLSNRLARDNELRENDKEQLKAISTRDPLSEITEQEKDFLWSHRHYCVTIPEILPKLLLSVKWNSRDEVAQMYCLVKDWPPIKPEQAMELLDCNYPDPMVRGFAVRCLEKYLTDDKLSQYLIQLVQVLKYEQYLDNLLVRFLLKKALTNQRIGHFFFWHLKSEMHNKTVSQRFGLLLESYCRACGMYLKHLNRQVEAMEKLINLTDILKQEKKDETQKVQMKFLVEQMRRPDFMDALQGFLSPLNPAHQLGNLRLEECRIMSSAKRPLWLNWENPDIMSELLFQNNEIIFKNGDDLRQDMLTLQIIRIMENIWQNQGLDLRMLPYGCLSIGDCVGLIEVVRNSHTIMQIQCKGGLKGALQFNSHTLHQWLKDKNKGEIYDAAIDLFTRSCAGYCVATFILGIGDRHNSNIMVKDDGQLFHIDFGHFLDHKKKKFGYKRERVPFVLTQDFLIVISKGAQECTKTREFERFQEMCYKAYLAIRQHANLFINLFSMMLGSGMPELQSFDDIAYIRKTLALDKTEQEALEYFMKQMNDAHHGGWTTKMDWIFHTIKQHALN
Sequence of Platelet-derived growth factor receptor beta (Homo sapiens) (P09619 whole entry, the tested form may be a part): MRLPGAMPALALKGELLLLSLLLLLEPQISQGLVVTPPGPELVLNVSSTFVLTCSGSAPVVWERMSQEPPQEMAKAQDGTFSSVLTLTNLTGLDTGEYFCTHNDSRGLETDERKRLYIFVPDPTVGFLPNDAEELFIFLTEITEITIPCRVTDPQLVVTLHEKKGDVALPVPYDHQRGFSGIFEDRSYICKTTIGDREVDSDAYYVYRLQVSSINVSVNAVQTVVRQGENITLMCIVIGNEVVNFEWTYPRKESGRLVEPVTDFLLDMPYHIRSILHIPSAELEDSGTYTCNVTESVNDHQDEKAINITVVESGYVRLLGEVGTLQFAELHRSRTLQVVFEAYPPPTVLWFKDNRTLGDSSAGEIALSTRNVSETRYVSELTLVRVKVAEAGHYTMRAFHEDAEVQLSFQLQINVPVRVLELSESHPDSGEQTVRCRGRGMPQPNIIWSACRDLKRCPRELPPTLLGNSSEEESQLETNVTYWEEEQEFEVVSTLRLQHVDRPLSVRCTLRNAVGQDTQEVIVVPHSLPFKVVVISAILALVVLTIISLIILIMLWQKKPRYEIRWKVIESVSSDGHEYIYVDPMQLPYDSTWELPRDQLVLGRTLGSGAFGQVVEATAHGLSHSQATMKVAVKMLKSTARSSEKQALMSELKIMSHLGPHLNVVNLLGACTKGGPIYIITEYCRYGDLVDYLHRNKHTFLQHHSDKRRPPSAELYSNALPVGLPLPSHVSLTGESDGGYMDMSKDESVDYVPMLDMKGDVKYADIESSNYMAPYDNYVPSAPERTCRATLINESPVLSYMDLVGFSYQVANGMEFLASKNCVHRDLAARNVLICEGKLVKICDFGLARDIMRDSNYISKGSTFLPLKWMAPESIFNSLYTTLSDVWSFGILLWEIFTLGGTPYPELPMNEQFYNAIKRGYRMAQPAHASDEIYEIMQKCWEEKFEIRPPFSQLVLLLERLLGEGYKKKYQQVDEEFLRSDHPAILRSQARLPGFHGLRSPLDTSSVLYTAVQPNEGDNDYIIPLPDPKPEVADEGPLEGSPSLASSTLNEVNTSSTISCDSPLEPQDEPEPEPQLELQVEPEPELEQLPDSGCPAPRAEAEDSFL
Sequence of Receptor-type tyrosine-protein kinase FLT3 (Homo sapiens) (P36888 whole entry, the tested form may be a part): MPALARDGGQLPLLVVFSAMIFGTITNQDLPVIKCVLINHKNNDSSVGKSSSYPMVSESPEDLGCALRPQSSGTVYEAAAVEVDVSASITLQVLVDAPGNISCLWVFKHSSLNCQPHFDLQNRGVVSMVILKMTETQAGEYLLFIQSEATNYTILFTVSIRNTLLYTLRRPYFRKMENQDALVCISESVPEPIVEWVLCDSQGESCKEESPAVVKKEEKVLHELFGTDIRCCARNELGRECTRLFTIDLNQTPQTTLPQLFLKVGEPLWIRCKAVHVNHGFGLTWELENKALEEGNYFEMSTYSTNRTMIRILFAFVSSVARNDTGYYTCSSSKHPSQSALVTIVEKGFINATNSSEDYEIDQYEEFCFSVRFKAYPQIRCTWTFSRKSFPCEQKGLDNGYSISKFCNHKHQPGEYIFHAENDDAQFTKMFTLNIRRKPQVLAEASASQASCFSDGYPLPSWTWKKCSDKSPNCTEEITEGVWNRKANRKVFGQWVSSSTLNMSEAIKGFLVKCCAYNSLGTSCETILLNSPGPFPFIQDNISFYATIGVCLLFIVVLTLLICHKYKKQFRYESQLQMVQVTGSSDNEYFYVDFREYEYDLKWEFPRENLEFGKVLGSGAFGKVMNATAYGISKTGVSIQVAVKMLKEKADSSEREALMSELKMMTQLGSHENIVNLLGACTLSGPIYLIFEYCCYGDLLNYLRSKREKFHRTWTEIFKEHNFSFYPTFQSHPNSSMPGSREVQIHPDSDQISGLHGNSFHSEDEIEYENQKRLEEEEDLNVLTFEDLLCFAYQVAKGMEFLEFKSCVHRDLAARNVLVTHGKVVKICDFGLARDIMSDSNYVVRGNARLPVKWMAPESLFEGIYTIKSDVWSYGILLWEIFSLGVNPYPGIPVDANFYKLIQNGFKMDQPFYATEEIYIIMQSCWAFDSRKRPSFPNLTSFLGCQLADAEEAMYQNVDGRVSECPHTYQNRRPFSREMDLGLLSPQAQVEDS

Regarding `CS(=O)(=O)N1CCN(Cc2cc3nc(-c4cccc5[nH]ncc45)nc(N4CCOCC4)c3s2)CC1` [PICTILISIB], the IC50 with HCC1954 [1] was 1300 nM; in the data set with MDA-MB-231 [2], greater than 30 µM; in the data set on T47D [4], 1200 nM; in the data set on SK-BR-3, 900 nM; in the data set on MCF7 [5] it was 2 µM. In addition, in the data set with HCC1954 [3], the Activity came out at 350 mm3.
For `Cc1nc2nc(Sc3ccccc3)cnc2cc1NC(=O)c1ccccc1`, the Activity with T47D [6] was greater than 50%; with T47D [7], greater than 50%; in the data set on MCF7 [11] it was greater than 50%; with MCF7 [14], greater than 50%; in the data set on Mus musculus [15], “Non-Toxic”; in the data set on HCC1954 [22] it was greater than 50%. Also, the Activity in the data set on HCC1954 [29] is greater than 50%; in the data set with MDA-MB-231 [30], greater than 50%; in the data set with Mus musculus [31], “Non-Toxic”; in the data set on MDA-MB-231 [32], greater than 50%. Also, the IC50 was 4500 nM with HCC1954 [1]; 4 µM in the data set on MDA-MB-231 [2]; 1500 nM with T47D [4]; 3700 nM in the data set with SK-BR-3; 4 µM in the data set with MCF7 [5]. For the same compound, the inhibition result in data set [8], in data set [10], in data set [12], in data set [16], in [18] and in data set [19] was “inactive” throughout. Further, the inhibition entry (in the data set filed under Sus scrofa; in data set [20]; in data set [21]; in data set [24]; in [25]; in data set [26]) was “inactive” each time. In [33], the inhibition entry is “inactive”. Moreover, the results for the AUC(0-t) at 8 h in data set [9] and in [23] were 0.57 µM·h and 0.43 µM·h, respectively. Further, the Tmax was 30 min in [13] and 15 min in data set [27]. Also, the Cmax in data set [17] was found to be 320 nM; in [28], 520 nM.
